Test results from patent US20240307372A1, “COMPOSITIONS AND METHODS TO IMPROVE BENEFIT OF SUBOPTIMALLY ADMINISTERED THERAPEUCTICS FOR THE TREATMENT OF BENIGN AND NEOPLASTIC DISEASES, INFECTIONS, INFLAMMATORY, METABOLIC AND IMMUNOLOGIAL DISEASES” (priority 2023, published 2024).
Like-named read-outs stand apart in the source and are kept apart here.

What was measured:
[1] = tested on: human chronic myeloid leukemia (CML) progenitors; test: Colony forming cell (CFC) assay on CML patient bone marrow cells, methylcellulose-based medium
Experimental: An in vitro investigation was performed to determine whether TET has efficacy on human chronic myeloid leukemia (CML) stem-like cells. A colony forming cell (CFC) assay was performed on bone marrow cells from a de-novo CML patient.
Human bone marrow light density cells derived from CML patient bone marrow (Conversant Bio, Alabama), were stored in the gaseous phase of liquid nitrogen until required. On the day of the experiment, the cells were thawed rapidly, the contents of the vial were diluted in 10 mL of Iscove's Modified Dulbecco's Medium containing 10% fetal bovine serum (IMDM+10% FBS) and washed by centrifugation (approximately 1200 r.p.m. for 10 minutes, room temperature). The supernatant was discarded and the cell pellets resuspended in a known volume of IMDM+10% FBS. A cell count (3% glacial acetic acid) and viability assessment (trypan blue exclusion test) […] Tetrandrine (10 μM) for 14 days. After treatment, primary and secondary colonies were grown and analyzed by qPCR to determine BCR-ABL or ABL only cells.
Human erythroid (CFU-E and BFU-E) and myeloid (CFU-GM) colony enumeration were performed by trained personnel. In addition, the distribution of colony types as well as general colony and cellular morphology were analyzed. […] For statistical analysis, colony numbers in compound-treated cultures were compared to the solvent control cultures.

HCT116 cells = conditions: human colorectal (HCT116) cells; cited from earlier work
[2] = cited from earlier work
[3] = tested on: leukemic cells and leukemic stem cells; test: BCR-ABL CML mouse model (bone marrow transplantation), oral treatment; assay type: in vivo; conditions: mice, orally, 150 mg/kg, 1×/day
Experimental: In an in vivo model, the effectiveness of Tetrandrine was tested on CML stem cells. The objective of the study was to determine the survival of leukemic cells and leukemic stem cells in response to the treatment with Tetrandrine. After priming donor C57BL/6 (B6) mice with intravenous injections of 5-fluorouracil for four days, bone marrow cells were harvested from femurs and tibia, then transfected twice with retrovirus containing MSCV-BCR-ABL-IRES-GFP. Recipient mice were lethally irradiated by two doses of 550 cGy before bone marrow transplantation by intravenous injection with 5×10^5 cells/mouse. Blood from recipient mice was tested for disease induction one week after transduction by FACS analysis for GFP (FIG. 7A). […] Treatments started on day 8 after bone marrow transplantation (FIG. 7B).

leukemia cell lines = conditions: cited from earlier work
[4] = tested on: colorectal (CT-26) xenografts; conditions: colorectal (CT-26) mouse xenografts; cited from earlier work
[5] = tested on: CML colonies (secondary clonal growth); test: Replating assay, secondary clonal growth of CML colonies; assay type: cell-based, human; conditions: colonies from original cultures with ES-3000 @10 μM
K562 cells = test: K562 cell viability after TET exposure (trypan blue); assay type: cell-based, human; conditions: 24 hours
Experimental: Briefly, the method for the first portion of the study was as follows: K562 cells were grown and maintained in medium (RPMI, 10% FBS, Pen Strep and […]). Cells were then exposed to TET, 0, 0.1, 1, 5, 10, 20 & 40 μM for 24 hours at 37° C. Following drug exposure, cell viability was checked using trypan blue, followed by cell lysis. Supernatants were collected and test for protein concentration using a Pierce BCA kit. The protein assay tubes were read on a Spectramax at 562 nm and Softmax@ software was used for protein concentration analysis.
The effect of TET treatment on K562 percent cell viability is depicted in Table 2 and is graphically illustrated in FIG. 2.

[6] = IV, cited from earlier work
[7] = tested on: human chronic myeloid leukemia (CML) progenitors; test: Colony forming cell (CFC) assay on CML patient bone marrow cells, methylcellulose-based medium; conditions: for BFU-E colonies / CFU-E colonies / Total Erythroid colonies: no Epo

Substance: 6,6′,7,12-tetramethoxy-2,2′-dimethyl-berbaman [ES-3000]
- CFU-GM colonies ([1]; 10 μM): 26 ± 2
- Total CFC ([1]; 10 μM): 26 ± 2
- IC50 ([1]; read-out: Myeloid IC50 ± 95% CI, Human progenitors): 9.56 ± 1.25 µM
- wnt/β-catenin signaling and tumor growth (HCT116 cells): inhibit wnt/β-catenin signaling and tumor growth
- protein binding [2]: highly protein bound
- inhibiting the development of circulating leukemic cells ([3]; listed as TET): reduced the development of leukemic cells in the peripheral blood
- inhibiting the development of leukemic stem cells ([3]; listed as TET): reduced the development of
- inhibiting the development of circulating leukemic cells ([3]; listed as Tetrandrine): superior to Imatinib
- inhibiting the development of leukemic stem cells ([3]; listed as Tetrandrine): superior to Imatinib
- 50% growth inhibition (Log GI50) (leukemia cell lines; NCI 60 cell line screen): −5.0 to −6.6
- GI50 (leukemia cell lines; read-out: 50% growth inhibition (GI50), NCI 60 cell line screen): 0.25 to 10 µM
- tumor growth [4]: reduced tumor growth by inducing apoptosis
- average CFC per well (secondary growth) [5]: three
- wells supported secondary growth with one or more colony [5]: 54.2%
- % Viability (K562 cells; 0.1 μM): 82.4%
- % Viability (K562 cells; 1 μM): 79.2%
- % Viability (K562 cells; 5 μM): 81.8%
- % Viability (K562 cells; 10 μM): 79.7%
- % Viability (K562 cells; 20 μM): 76.5%
- % Viability (K562 cells; 40 μM): 56.4%
- recommended dose for a Phase II study ([6]; daily ×5, repeated every 2 weeks): 200 mg/m2
- recommended dose for a Phase II study ([6]; single dose repeated weekly): 300 mg/m2
- CFU-GM colonies ([7]; 0.1 μM): 55 ± 5
- Total CFC ([7]; 0.1 μM): 88 ± 8
- BFU-E colonies ([7]; 0.1 μM): 22 ± 4
- CFU-E colonies ([7]; 0.1 μM): 11 ± 1
- Total Erythroid colonies ([7]; 0.1 μM): 33 ± 3
- CFU-GM colonies ([7]; 1 μM): 54 ± 2
- Total CFC ([7]; 1 μM): 86 ± 4
- BFU-E colonies ([7]; 1 μM): 22 ± 4
- CFU-E colonies ([7]; 1 μM): 10 ± 2
- Total Erythroid colonies ([7]; 1 μM): 33 ± 3
- CFU-GM colonies ([7]; 3 μM): 52 ± 5
- Total CFC ([7]; 3 μM): 75 ± 6
- BFU-E colonies ([7]; 3 μM): 14 ± 3
- CFU-E colonies ([7]; 3 μM): 9 ± 2
- Total Erythroid colonies ([7]; 3 μM): 23 ± 2
- IC50 ([7]; read-out: Erythroid IC50 ± 95% CI, Human progenitors): 3.12 ± 0.01 µM
